Columns and labels:
[1] = tested on: Rattus norvegicus; assay: Inhibition of paw swelling relative to the tebufelone in rat. Value was reported as Carrageenan paw edema index; type: functional
[2] = species: Rattus norvegicus; assay: Analgesic activity in phenylquinone-induced abdominal constriction assay (PAC); type: functional, Abdomen; parameters: concentration or dose not given beside the values
[3] = target: Prostaglandin G/H synthase 1 (Homo sapiens, UniProt P23219)
Description: Inhibitory activity against prostaglandin G/H synthase 1 (COX-1)

[4] = target: T1, Prostaglandin G/H synthase 2 (Homo sapiens, UniProt P35354)
T1 sequence (P35354 whole entry): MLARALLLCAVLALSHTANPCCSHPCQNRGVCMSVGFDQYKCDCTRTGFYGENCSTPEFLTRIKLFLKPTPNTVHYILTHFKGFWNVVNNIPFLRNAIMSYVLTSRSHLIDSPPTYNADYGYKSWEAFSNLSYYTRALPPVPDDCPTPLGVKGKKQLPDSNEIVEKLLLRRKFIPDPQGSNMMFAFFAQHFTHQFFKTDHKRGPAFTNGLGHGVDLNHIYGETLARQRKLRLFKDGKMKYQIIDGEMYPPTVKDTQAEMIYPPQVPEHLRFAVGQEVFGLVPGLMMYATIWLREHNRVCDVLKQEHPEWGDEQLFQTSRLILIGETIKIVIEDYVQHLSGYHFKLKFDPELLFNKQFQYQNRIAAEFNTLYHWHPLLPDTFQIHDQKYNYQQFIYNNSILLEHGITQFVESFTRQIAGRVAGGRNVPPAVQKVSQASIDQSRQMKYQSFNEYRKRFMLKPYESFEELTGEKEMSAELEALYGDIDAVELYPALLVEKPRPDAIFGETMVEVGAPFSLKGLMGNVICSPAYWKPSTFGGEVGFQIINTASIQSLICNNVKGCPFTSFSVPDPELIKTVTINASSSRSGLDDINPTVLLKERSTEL
Description: Inhibitory activity against prostaglandin G/H synthase 2 (COX-2)

[5] = target: T2, Polyunsaturated fatty acid 5-lipoxygenase (Homo sapiens, UniProt P09917); assay: Inhibition of 5-Lipoxygenase (5-LOX)
T2 sequence (P09917 whole entry): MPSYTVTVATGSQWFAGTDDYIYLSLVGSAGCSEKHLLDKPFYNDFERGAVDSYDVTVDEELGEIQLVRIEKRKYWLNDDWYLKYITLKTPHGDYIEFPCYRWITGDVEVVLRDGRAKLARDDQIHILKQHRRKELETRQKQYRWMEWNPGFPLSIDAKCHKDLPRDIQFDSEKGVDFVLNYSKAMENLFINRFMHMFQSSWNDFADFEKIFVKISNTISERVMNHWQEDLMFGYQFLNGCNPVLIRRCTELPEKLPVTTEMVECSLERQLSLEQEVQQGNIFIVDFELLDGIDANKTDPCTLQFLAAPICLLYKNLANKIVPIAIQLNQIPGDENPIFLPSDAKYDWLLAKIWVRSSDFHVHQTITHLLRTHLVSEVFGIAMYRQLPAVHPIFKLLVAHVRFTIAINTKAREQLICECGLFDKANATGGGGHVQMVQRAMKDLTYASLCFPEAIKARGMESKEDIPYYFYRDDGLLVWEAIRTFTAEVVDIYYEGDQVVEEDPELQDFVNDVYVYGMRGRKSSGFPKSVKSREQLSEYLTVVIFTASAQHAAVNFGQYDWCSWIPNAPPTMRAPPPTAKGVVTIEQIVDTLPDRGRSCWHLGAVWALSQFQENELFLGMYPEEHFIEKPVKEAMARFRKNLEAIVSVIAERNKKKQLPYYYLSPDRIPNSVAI

Chain of Prostaglandin G/H synthase 1 (P23219 whole entry): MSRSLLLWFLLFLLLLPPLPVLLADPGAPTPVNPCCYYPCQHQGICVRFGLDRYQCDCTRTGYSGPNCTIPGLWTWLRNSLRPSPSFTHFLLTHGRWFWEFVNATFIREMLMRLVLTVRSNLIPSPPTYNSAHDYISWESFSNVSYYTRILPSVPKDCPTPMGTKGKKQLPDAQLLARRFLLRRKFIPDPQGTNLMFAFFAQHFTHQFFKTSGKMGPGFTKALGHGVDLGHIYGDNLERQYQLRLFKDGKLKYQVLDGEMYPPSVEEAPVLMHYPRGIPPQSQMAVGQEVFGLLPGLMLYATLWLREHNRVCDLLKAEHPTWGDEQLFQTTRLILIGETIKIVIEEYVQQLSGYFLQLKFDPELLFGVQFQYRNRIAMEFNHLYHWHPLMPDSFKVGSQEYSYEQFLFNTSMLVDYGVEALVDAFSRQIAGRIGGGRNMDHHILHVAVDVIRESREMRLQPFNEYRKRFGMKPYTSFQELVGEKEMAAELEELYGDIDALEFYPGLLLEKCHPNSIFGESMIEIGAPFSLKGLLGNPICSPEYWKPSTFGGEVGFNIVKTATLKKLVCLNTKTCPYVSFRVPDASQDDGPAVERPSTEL

SMILES	CPE index [1]	Inhibition [2]	IC50 [3]	IC50 [4]	IC50 [5]
CC(C)(C)c1cc(-c2csc(N)n2)cc2c1OCC2(C)C	0.26	–	–	–	–
CC(C)(C)c1cc(C(=O)NCC2CC2)cc2c1OCC2(C)C	0.44	–	–	–	–
COC(=O)c1cc(C(C)(C)C)c2c(c1)C(C)(C)CO2	0.16	–	–	–	–
CC(C)(C)c1cc(C(=O)O)cc2c1OCC2(C)C	0.47	–	–	–	–
CC(C)(C)c1cc(C(=O)NCCO)cc2c1OCC2(C)C	0.33	–	–	–	–
CC(C)(C)c1cc(C(=O)Nc2ccccc2)cc2c1OCC2(C)C	0.01	–	–	–	–
CC(C)(C)c1cc(C(=O)N2CCSCC2)cc2c1OCC2(C)C	0.71	29%	–	–	–
CC(C)(C)c1cc(-c2csc(N=C(N)N)n2)cc2c1OCC2(C)C	1.38	77%	15000 nM	9000 nM	–
CCCNC(=O)Nc1cc(C(C)(C)C)c2c(c1)C(C)(C)CO2	0.41	–	–	–	–
CCCN(C(=O)c1cc(C(C)(C)C)c2c(c1)C(C)(C)CO2)C1CC1	1.41	–	4500 nM	4000 nM	–
CC1(C)CC(c2cc(C(C)(C)C)c3c(c2)C(C)(C)CO3)=NO1	0.56	80%	70 nM	200 nM	–
CC(C)(C)c1cc(-c2cccs2)cc2c1OCC2(C)C	0.92	52%	200 nM	70 nM	9000 nM
Cc1nc(-c2cc(C(C)(C)C)c3c(c2)C(C)(C)CO3)no1	0.83	–	–	–	–
CC(C)(C)c1cc(-c2cocn2)cc2c1OCC2(C)C	0.19	–	–	–	–
CC(C)(C)c1cc(Nc2ccccc2C(=O)O)cc2c1OCC2(C)C	0.78	–	2500 nM	4000 nM	–
CC(C)(C)c1cc(C(=O)c2cccs2)cc2c1OCC2(C)C	0.58	34%	45 nM	38 nM	10000 nM
CCCN(C)C(=O)c1cc(C(C)(C)C)c2c(c1)C(C)(C)CO2	0.91	36%	–	–	–
CCNC(=O)Nc1cc(C(C)(C)C)c2c(c1)C(C)(C)CO2	0.73	36%	–	–	–
CC(C)(C)c1cc(C(=O)NCC(O)CO)cc2c1OCC2(C)C (stereo unspecified)	0.51	–	–	–	–
CC(C)NC(=O)c1cc(C(C)(C)C)c2c(c1)C(C)(C)CO2	1.09	43%	–	–	–
CCCCNC(=O)c1cc(C(C)(C)C)c2c(c1)C(C)(C)CO2	0.46	–	2500 nM	220 nM	–
CC(C)(C)c1cc(/C=C\c2cccs2)cc2c1OCC2(C)C	0.77	13%	20 nM	35 nM	6000 nM
CC(C)(C)c1cc(-c2cscn2)cc2c1OCC2(C)C	1.53	59%	–	–	–
CC(C)(C)c1cc(C(=O)NC2CCC2)cc2c1OCC2(C)C	0	–	–	–	–
CCCCCNC(=O)c1cc(C(C)(C)C)c2c(c1)C(C)(C)CO2	0.16	–	2000 nM	250 nM	–
CC(C)(C)c1cc(C(=N)N2CCCC2)cc2c1OCC2(C)C	0.8	0%	> 100000 nM	> 100000 nM	30000 nM

SMILES	CPE index [1]	Inhibition [2]	IC50 [3]	IC50 [4]	IC50 [5]
CC(C)(C)c1cc(C(=O)NC2CC2)cc2c1OCC2(C)C	0.68	20%	290 nM	550 nM	> 50000 nM
CC(C)(C)c1cc(-c2cn3cc[s+]([O-])c3n2)cc2c1OCC2(C)C (stereo unspecified)	0.96	–	–	–	–
CC(C)(C)c1cc(-c2cn3ccsc3n2)cc2c1OCC2(C)C	0.81	68%	75 nM	15 nM	10000 nM
CC(C)(C)c1cc(/C=C\c2cccnc2)cc2c1OCC2(C)C	0.78	45%	–	–	–
CC(C)(C)c1cc(C(=O)c2nccs2)cc2c1OCC2(C)C	0.75	28%	–	–	–
CN(C)C(=N)c1cc(C(C)(C)C)c2c(c1)C(C)(C)CO2	0.47	–	–	–	–
CN(C)CCNC(=O)c1cc(C(C)(C)C)c2c(c1)C(C)(C)CO2	0	–	–	–	–
CC(C)(C)c1cc(C(=O)N2CCCCC2)cc2c1OCC2(C)C	0.52	34%	–	–	–
CC(C)(C)c1cc(C(=O)c2ccoc2)cc2c1OCC2(C)C	0.68	3%	–	–	–
CC(C)(C)c1cc(-c2ccco2)cc2c1OCC2(C)C	0.93	7%	–	–	–
CCN(C(=O)c1cc(C(C)(C)C)c2c(c1)C(C)(C)CO2)C1CC1	1.14	–	–	–	–
CC(C)(C)c1cc(/C=C(/C(=O)O)c2cccs2)cc2c1OCC2(C)C	0.76	19%	–	–	–
CCCNC(=O)c1cc(C(C)(C)C)c2c(c1)C(C)(C)CO2	1.17	63%	550 nM	950 nM	> 50000 nM
CC(C)(C)c1cc(C(=O)NC2=NCCS2)cc2c1OCC2(C)C	0.81	65%	–	–	–
CC(C)(C)c1cc(C(=O)N2CCCC2)cc2c1OCC2(C)C	0.78	–	–	–	–
Cc1cc(/C=C\c2cc(C(C)(C)C)c3c(c2)C(C)(C)CO3)[nH]n1	0.56	35%	–	–	–
Cn1cccc1C(=O)c1cc(C(C)(C)C)c2c(c1)C(C)(C)CO2	1.24	57%	35 nM	45 nM	–
CC(C)(C)c1cc(C(=O)NCCC2CC2)cc2c1OCC2(C)C	0.06	–	–	–	–
CC(C)(C)c1cc(C=C2CCOC2=O)cc2c1OCC2(C)C	0.93	–	45 nM	3.5 nM	4000 nM
CC(C)(C)c1cc(C(=O)c2ccsc2)cc2c1OCC2(C)C	0.62	40%	–	–	–
CC(C)(C)c1cc(C(=O)Nc2nccs2)cc2c1OCC2(C)C	0.49	–	–	–	–
CC(C)(C)c1cc(C(=O)c2ccco2)cc2c1OCC2(C)C	0.7	24%	–	–	–
CC(=O)Nc1cc(C(C)(C)C)c2c(c1)C(C)(C)CO2	0.66	22%	3500 nM	3500 nM	–
CC(C)(C)c1cc(C(=O)NC2CCCC2)cc2c1OCC2(C)C	0	–	–	–	–
COCCNC(=O)c1cc(C(C)(C)C)c2c(c1)C(C)(C)CO2	1.47	84%	1000 nM	30 nM	50000 nM
